Results as given in PubChem BioAssay (NCI).
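Step 1: Grow cells in 96-well plates. Step 2: Expose to compound for 48 hours at 5 concentrations. Step 3: Interpolate endpoints linearly; if unreached, use highest concentration. The concentration for full growth arrest is given as TGI.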

Tested on: HOP-62 NSCLC
Experiment: NCI-60 cell line screen, 48 h

Structure (SMILES)	TGI [µM]
C=CCOC1=C(OC(C)=O)C(=O)OC1C1COC(C)(C)O1 (stereo unspecified)	> 100
Clc1ccc(-c2nc3ccc(Cl)cc3[nH]2)cc1	> 100
O=C(Nc1ccn(C2CCC(CO)O2)c(=O)n1)c1ccccc1 (stereo unspecified)	> 100

Tested on: HOP-92 NSCLC
Experiment: NCI-60 cell line screen, 48 h

Structure (SMILES)	TGI [µM]
CN1CCN(CCCNN)CC1	> 100
Clc1ccc(-c2nc3ccc(Cl)cc3[nH]2)cc1	75.1

Tested on: HS 578T breast
Experiment: NCI-60 cell line screen, 48 h

Structure (SMILES)	TGI [µM]
CN1CCN(CCCNN)CC1	> 100
CC(C)(C)[Si](C)(C)OC1(CCc2ccccc2OS(=O)(=O)C(F)(F)F)CCCC=C1COCc1ccccc1 (stereo unspecified)	> 100
C=CCOC1=C(OC(C)=O)C(=O)OC1C1COC(C)(C)O1 (stereo unspecified)	> 100
Clc1ccc(-c2nc3ccc(Cl)cc3[nH]2)cc1	> 100
O=C(Nc1ccn(C2CCC(CO)O2)c(=O)n1)c1ccccc1 (stereo unspecified)	> 100

Tested on: HT29 colon
Experiment: NCI-60 cell line screen, 48 h

Structure (SMILES)	TGI [µM]
CN1CCN(CCCNN)CC1	> 100
CC(C)(C)[Si](C)(C)OC1(CCc2ccccc2OS(=O)(=O)C(F)(F)F)CCCC=C1COCc1ccccc1 (stereo unspecified)	> 100
C=CCOC1=C(OC(C)=O)C(=O)OC1C1COC(C)(C)O1 (stereo unspecified)	> 83.2
Clc1ccc(-c2nc3ccc(Cl)cc3[nH]2)cc1	> 100
O=C(Nc1ccn(C2CCC(CO)O2)c(=O)n1)c1ccccc1 (stereo unspecified)	> 100

Tested on: IGROV1 ovarian
Experiment: NCI-60 cell line screen, 48 h

Structure (SMILES)	TGI [µM]
CN1CCN(CCCNN)CC1	> 100
CC(C)(C)[Si](C)(C)OC1(CCc2ccccc2OS(=O)(=O)C(F)(F)F)CCCC=C1COCc1ccccc1 (stereo unspecified)	> 100
C=CCOC1=C(OC(C)=O)C(=O)OC1C1COC(C)(C)O1 (stereo unspecified)	> 100
Clc1ccc(-c2nc3ccc(Cl)cc3[nH]2)cc1	> 100
O=C(Nc1ccn(C2CCC(CO)O2)c(=O)n1)c1ccccc1 (stereo unspecified)	> 100

Tested on: K-562 leukemia
Experiment: NCI-60 cell line screen, 48 h

Structure (SMILES)	TGI [µM]
CN1CCN(CCCNN)CC1	37.5
CC(C)(C)[Si](C)(C)OC1(CCc2ccccc2OS(=O)(=O)C(F)(F)F)CCCC=C1COCc1ccccc1 (stereo unspecified)	> 100
C=CCOC1=C(OC(C)=O)C(=O)OC1C1COC(C)(C)O1 (stereo unspecified)	> 56.5
Clc1ccc(-c2nc3ccc(Cl)cc3[nH]2)cc1	> 100
O=C(Nc1ccn(C2CCC(CO)O2)c(=O)n1)c1ccccc1 (stereo unspecified)	> 100

Tested on: KM12 colon
Experiment: NCI-60 cell line screen, 48 h

Structure (SMILES)	TGI [µM]
CN1CCN(CCCNN)CC1	> 100
CC(C)(C)[Si](C)(C)OC1(CCc2ccccc2OS(=O)(=O)C(F)(F)F)CCCC=C1COCc1ccccc1 (stereo unspecified)	> 100
C=CCOC1=C(OC(C)=O)C(=O)OC1C1COC(C)(C)O1 (stereo unspecified)	> 65.6
Clc1ccc(-c2nc3ccc(Cl)cc3[nH]2)cc1	98.1
O=C(Nc1ccn(C2CCC(CO)O2)c(=O)n1)c1ccccc1 (stereo unspecified)	> 100

Tested on: LOX IMVI melanoma
Experiment: NCI-60 cell line screen, 48 h

Structure (SMILES)	TGI [µM]
CN1CCN(CCCNN)CC1	> 100
CC(C)(C)[Si](C)(C)OC1(CCc2ccccc2OS(=O)(=O)C(F)(F)F)CCCC=C1COCc1ccccc1 (stereo unspecified)	> 100
C=CCOC1=C(OC(C)=O)C(=O)OC1C1COC(C)(C)O1 (stereo unspecified)	33.2
Clc1ccc(-c2nc3ccc(Cl)cc3[nH]2)cc1	69.5
O=C(Nc1ccn(C2CCC(CO)O2)c(=O)n1)c1ccccc1 (stereo unspecified)	> 100

Tested on: M14 melanoma
Experiment: NCI-60 cell line screen, 48 h

Structure (SMILES)	TGI [µM]
CN1CCN(CCCNN)CC1	> 100
CC(C)(C)[Si](C)(C)OC1(CCc2ccccc2OS(=O)(=O)C(F)(F)F)CCCC=C1COCc1ccccc1 (stereo unspecified)	> 100
C=CCOC1=C(OC(C)=O)C(=O)OC1C1COC(C)(C)O1 (stereo unspecified)	> 80.7
Clc1ccc(-c2nc3ccc(Cl)cc3[nH]2)cc1	> 100
O=C(Nc1ccn(C2CCC(CO)O2)c(=O)n1)c1ccccc1 (stereo unspecified)	> 100

Tested on: MALME-3M melanoma
Experiment: NCI-60 cell line screen, 48 h

Structure (SMILES)	TGI [µM]
C=CCOC1=C(OC(C)=O)C(=O)OC1C1COC(C)(C)O1 (stereo unspecified)	57.1
Clc1ccc(-c2nc3ccc(Cl)cc3[nH]2)cc1	> 100
O=C(Nc1ccn(C2CCC(CO)O2)c(=O)n1)c1ccccc1 (stereo unspecified)	> 100

Tested on: MCF7 breast
Experiment: NCI-60 cell line screen, 48 h

Structure (SMILES)	TGI [µM]
CN1CCN(CCCNN)CC1	> 100
CC(C)(C)[Si](C)(C)OC1(CCc2ccccc2OS(=O)(=O)C(F)(F)F)CCCC=C1COCc1ccccc1 (stereo unspecified)	> 54.8
C=CCOC1=C(OC(C)=O)C(=O)OC1C1COC(C)(C)O1 (stereo unspecified)	> 66.4
Clc1ccc(-c2nc3ccc(Cl)cc3[nH]2)cc1	> 100
O=C(Nc1ccn(C2CCC(CO)O2)c(=O)n1)c1ccccc1 (stereo unspecified)	> 100

Tested on: MDA-MB-231 breast
Experiment: NCI-60 cell line screen, 48 h

Structure (SMILES)	TGI [µM]
CN1CCN(CCCNN)CC1	> 100
CC(C)(C)[Si](C)(C)OC1(CCc2ccccc2OS(=O)(=O)C(F)(F)F)CCCC=C1COCc1ccccc1 (stereo unspecified)	> 100
C=CCOC1=C(OC(C)=O)C(=O)OC1C1COC(C)(C)O1 (stereo unspecified)	> 100
Clc1ccc(-c2nc3ccc(Cl)cc3[nH]2)cc1	> 100
O=C(Nc1ccn(C2CCC(CO)O2)c(=O)n1)c1ccccc1 (stereo unspecified)	> 100

Tested on: MDA-MB-435
Experiment: NCI-60 cell line screen, 48 h

Structure (SMILES)	TGI [µM]
CN1CCN(CCCNN)CC1	> 100
CC(C)(C)[Si](C)(C)OC1(CCc2ccccc2OS(=O)(=O)C(F)(F)F)CCCC=C1COCc1ccccc1 (stereo unspecified)	> 100
C=CCOC1=C(OC(C)=O)C(=O)OC1C1COC(C)(C)O1 (stereo unspecified)	> 74
Clc1ccc(-c2nc3ccc(Cl)cc3[nH]2)cc1	84.5
O=C(Nc1ccn(C2CCC(CO)O2)c(=O)n1)c1ccccc1 (stereo unspecified)	> 100

Tested on: MDA-N
Experiment: NCI-60 cell line screen, 48 h

Structure (SMILES)	TGI [µM]
CN1CCN(CCCNN)CC1	> 100
CC(C)(C)[Si](C)(C)OC1(CCc2ccccc2OS(=O)(=O)C(F)(F)F)CCCC=C1COCc1ccccc1 (stereo unspecified)	> 100
C=CCOC1=C(OC(C)=O)C(=O)OC1C1COC(C)(C)O1 (stereo unspecified)	> 100
Clc1ccc(-c2nc3ccc(Cl)cc3[nH]2)cc1	85.2
O=C(Nc1ccn(C2CCC(CO)O2)c(=O)n1)c1ccccc1 (stereo unspecified)	> 100

Tested on: MOLT-4 leukemia
Experiment: NCI-60 cell line screen, 48 h

Structure (SMILES)	TGI [µM]
CN1CCN(CCCNN)CC1	1.44
CC(C)(C)[Si](C)(C)OC1(CCc2ccccc2OS(=O)(=O)C(F)(F)F)CCCC=C1COCc1ccccc1 (stereo unspecified)	> 62.3
C=CCOC1=C(OC(C)=O)C(=O)OC1C1COC(C)(C)O1 (stereo unspecified)	45.7
Clc1ccc(-c2nc3ccc(Cl)cc3[nH]2)cc1	> 100
O=C(Nc1ccn(C2CCC(CO)O2)c(=O)n1)c1ccccc1 (stereo unspecified)	> 100

Tested on: NCI-H226 lung
Experiment: NCI-60 cell line screen, 48 h

Structure (SMILES)	TGI [µM]
CN1CCN(CCCNN)CC1	> 100
CC(C)(C)[Si](C)(C)OC1(CCc2ccccc2OS(=O)(=O)C(F)(F)F)CCCC=C1COCc1ccccc1 (stereo unspecified)	> 100
C=CCOC1=C(OC(C)=O)C(=O)OC1C1COC(C)(C)O1 (stereo unspecified)	> 100
